# Assay results from patent US5723747A, “Wax esters in transformed plants” (Calgene, Inc., priority 1994, dated 1998).
# Read-outs that look alike come from different tables or passages of the source.
# Assays:
# jojoba wax synthase = target: T1, jojoba wax synthase (Simmondsia chinensis, UniProt Q9XGY6); experiment: Wax synthase assay, microsomal membrane fraction; format: biochemical; conditions: for Wax synthase Activity, Acyl Group: 80 μM acyl-CoA substrate, 100 μM radiolabeled oleyl alcohol; for Wax synthase Activity, Alcohol Group: 100 μM alcohol substrate, 40 μM radiolabeled eicosenoyl-CoA
# T1 construct: added to a microsomal membrane fraction having wax synthase activity; from tissue; host or cells: jojoba microsomal membrane fraction
# T1 sequence (Q9XGY6 1-352): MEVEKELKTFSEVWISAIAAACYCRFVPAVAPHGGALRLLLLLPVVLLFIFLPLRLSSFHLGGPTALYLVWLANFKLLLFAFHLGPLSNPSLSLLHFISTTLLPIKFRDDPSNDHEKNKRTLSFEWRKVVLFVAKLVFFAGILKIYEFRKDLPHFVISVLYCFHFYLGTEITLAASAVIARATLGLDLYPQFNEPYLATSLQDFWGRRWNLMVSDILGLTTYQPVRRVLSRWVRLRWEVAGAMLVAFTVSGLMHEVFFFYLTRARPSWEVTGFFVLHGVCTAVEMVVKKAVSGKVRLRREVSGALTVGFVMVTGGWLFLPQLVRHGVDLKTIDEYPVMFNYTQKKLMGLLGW
# Procedure: Wax synthase activity is measured by incubation of 40 μM [1-^14 C]acyl-CoA (usually palmitoyl-CoA, sp. act. 5.1-5.6 mCi/mmol) and 200 μM oleyl alcohol with the sample to be assayed in a total volume of 0.25 ml. The incubation mixture also contains 20% w/v glycerol, 1 mM DTT, 0.5M NaCl and is buffered with 25 mM HEPES (4-[2-hydroxyethyl]-1-piperazineethane-sulfonic acid).
# A substrate mixture is prepared in a glass vial, with oleyl alcohol being added immediately before use, and is added to samples.
# Acyl-CoA and alcohol substrates having varying carbon chain lengths and degrees of unsaturation were added to a microsomal membrane fraction having wax synthase activity to determine the range of substrates recognized by the jojoba wax synthase. Wax synthase activity was measured as described in Example 1, with acyl specificity measured using 80 μM of acyl-CoA substrate and 100 μM of radiolabeled oleyl alcohol. Alcohol specificity was measured using 100 μM of alcohol substrate and 40 μM of radiolabeled eicosenoyl-CoA.
# [1] = target: T2, jojoba acyl-CoA reductase (Simmondsia chinensis, UniProt Q9XGY7, S459G); experiment: biochemical; conditions: for effect of salt on reductase activity (in words): 0.5M monobasic salts, divalent salts at 0.167M and 0.5M; for effect of end-products and cofactors on reductase activity (in words): CoA and NADP+ at millimolar concentrations; for Reductase Activity, Acyl-CoA (10 μM): acyl-CoA as substrate at 10 μM, 0.5M NaCl, pH 7.5
# T2 sequence (Q9XGY7 whole entry S459G): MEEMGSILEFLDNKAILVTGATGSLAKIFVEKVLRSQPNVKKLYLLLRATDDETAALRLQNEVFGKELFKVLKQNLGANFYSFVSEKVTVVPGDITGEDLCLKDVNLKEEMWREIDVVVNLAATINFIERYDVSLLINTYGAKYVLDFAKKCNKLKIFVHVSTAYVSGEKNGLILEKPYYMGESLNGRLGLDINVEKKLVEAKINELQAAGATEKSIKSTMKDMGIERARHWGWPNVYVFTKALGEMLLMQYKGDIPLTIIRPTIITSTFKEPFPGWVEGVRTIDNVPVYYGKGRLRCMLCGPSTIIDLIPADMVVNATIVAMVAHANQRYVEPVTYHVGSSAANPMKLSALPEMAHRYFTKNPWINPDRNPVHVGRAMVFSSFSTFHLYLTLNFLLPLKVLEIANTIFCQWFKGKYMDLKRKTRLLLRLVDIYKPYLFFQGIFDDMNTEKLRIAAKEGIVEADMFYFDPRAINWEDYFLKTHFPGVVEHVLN
# Procedure: (§1) […] The incubation mixture also contains 10% w/v glycerol, 1 mM DTT, and is buffered with 50 mM HEPES (4-[2-hydroxyethyl]-1-piperazineethane-sulfonic acid) (HEPES, here and as referred to hereafter is added from a 1M stock solution adjusted to pH 7.5).
# (§2) […] The assay is terminated by placing the assay tube on ice and immediately adding 0.25 ml isopropanol:acetic acid (5:1 v/v). Unlabeled wax esters (0.1 mg) and oleyl alcohol (0.1 mg) are added as carriers. The [^14 C] lipids are extracted by the scaled-down protocol of Hara and Radin (Anal. Biochem. (1978) 90:420). Six ml of hexane/isopropanol (3:2, v/v) is added to the terminated assay. The sample is vortexed, 2 ml of aqueous sodium sulphate solution (5.5% w/v) is added, and the sample is again vortexed.
# (§3) The incubation mixture also contains 10% w/v glycerol, 1 mM DTT, and is buffered with 50 mM HEPES (4-[2-hydroxyethyl]-1-piperazineethane-sulfonic acid) (HEPES, here and as referred to hereafter is added from a 1M stock solution adjusted to pH 7.5). […]
# as §2, with “(4:1” for “(5:1”, “(25 μg),” for “(0.1 mg) and”, “(50 μg), and oleic acid (50 μg)” for “(0.1 mg)”, “Four” for “Six”, “(6.7%” for “(5.5%”
# (§4) Following addition of the sodium sulphate and vortexing the sample, the upper organic phase is removed and the lower aqueous phase is washed with 4 ml hexane/isopropanol (7:2 v/v). The organic phases are pooled and evaporated to dryness under nitrogen. The lipid residue is resuspended in a small volume of heptane, and an aliquot is assayed for radioactivity by liquid scintillation counting. The remainder of the sample can be used either for TLC analysis of the labeled classes, or for derivatization to cleave the wax esters, and thereby give a measure of total alcohol produced.
# (§5) For lipid class analysis the sample is applied to a silica TLC plate, and the plate is developed in hexane/diethyl ether/acetic acid (such as 80:20:1 or 70:30:1 v/v/v). The distribution of radioactivity between the lipid classes, largely wax esters (when ligase is present, as in the microsomal membrane preparation assay), free fatty acids, fatty alcohols, and polar lipids at the origin, is measured using an AMBIS radioanalytic imaging system (AMBIS Systems Inc., San Diego, Calif.). If necessary the individual lipid classes can be recovered from the TLC plate for further analysis.
# (§6) Following addition of the sodium sulfate and vortexing the sample, a known percentage of the organic phase is removed and counted via liquid scintillation counting. This calculation is used to estimate the total counts in the organic phase.
# [2] = target: T3, acyl CoA: alcohol acyl transferase (Simmondsia chinensis, UniProt Q9XGY6); experiment: Acyl CoA: alcohol acyl transferase activity in the membrane preparation; format: biochemical, jojoba; conditions: 0.3% w/v in the assay mixture
# T3 construct: activity which is also present in the membrane preparation; from tissue; host or cells: microsomal membrane preparation (jojoba embryos)
# T3 sequence (Q9XGY6 1-352): T1 sequence (Q9XGY6 1-352)
# Description: If it is desired to inhibit an acyl CoA: alcohol acyl transferase activity which is also present in the membrane preparation (and which consumes the product of the reductase reaction), 0.3% w/v CHAPS is included in the assay mixture.
# [3] = target: jojoba acyl-CoA reductase (Simmondsia chinensis, UniProt Q9XGY7); experiment: biochemical
# jojoba acyl-CoA reductase (Simmondsia chinensis, UniProt Q9XGY7), sequence (Q9XGY7 whole entry S459G): as above
# Procedure: as §1, §2, §3
# as §2, with “(4:1” for “(5:1”, “(25 μg),” for “(0.1 mg) and”, “(50 μg), and oleic acid (50 μg)” for “(0.1 mg)”, “Four” for “Six”, “(6.7%” for “(5.5%”
# as §4, §5, §6
# [4] = target: T2, jojoba acyl-CoA reductase; parameters: The microsomal membrane preparation described above is used for further characterization of the reductase enzyme; from tissue; host or cells: jojoba embryos (about 90 to 110 days postanthesis), microsomal membrane preparation; conditions: previously shown, Pollard et al.; cited from earlier work
# [5] = palmitoyl thioesters as acyl substrates
molecule,measurement,setting,value
CCCCCCCCCCCCCCCCCCCCCC(=O)SCCNC(=O)CCNC(=O)[C@H](O)C(C)(C)COP(=O)(O)OP(=O)(O)OC[C@H]1O[C@@H](n2cnc3c(N)ncnc32)[C@H](O)[C@@H]1OP(=O)(O)O [22:0],"Wax synthase Activity, Acyl Group",jojoba wax synthase,46 pmol/min
same,"Wax synthase Activity, Alcohol Group",jojoba wax synthase,17 pmol/min
[Cl-].[Cl-].[Mg+2] [MgCl2],effect of salt on reductase activity (in words),[1],stimulate reductase activity
NC(=O)c1ccc[n+]([C@@H]2O[C@H](COP(=O)([O-])OP(=O)(O)OC[C@H]3O[C@@H](n4cnc5c(N)ncnc54)[C@H](OP(=O)(O)O)[C@@H]3O)[C@@H](O)[C@H]2O)c1 [NADP+],effect of end-products and cofactors on reductase activity (in words),[1],significant inhibition
NC(=O)CI [iodoacetamide],inhibitory effect on jojoba acyl-CoA reductase activity (in words),[1],no effect
NC(=O)c1ccc[n+]([C@@H]2O[C@H](COP(=O)([O-])OP(=O)(O)OC[C@H]3O[C@@H](n4cnc5c(N)ncnc54)[C@H](O)[C@@H]3O)[C@@H](O)[C@H]2O)c1 [AND+],effect of end-products and cofactors on reductase activity (in words),[1],marginal effects
CCCCCCCCCCCCCCCCCCCC(=O)SCCNC(=O)CCNC(=O)[C@H](O)C(C)(C)COP(=O)(O)OP(=O)(O)OC[C@H]1O[C@@H](n2cnc3c(N)ncnc32)[C@H](O)[C@@H]1OP(=O)(O)O [20:0],"Wax synthase Activity, Acyl Group",jojoba wax synthase,49 pmol/min
same,"Wax synthase Activity, Alcohol Group",jojoba wax synthase,21 pmol/min
CCN1C(=O)C=CC1=O [N-ethylmaleimide],inhibitory effect on jojoba acyl-CoA reductase activity (in words),[1],strongly inhibit
C/C=C/C/C=C/CCC(=O)[C@H]1O[C@H]1C(N)=O [Cerulinen],inhibitory effect on jojoba acyl-CoA reductase activity (in words),[1],no strong inhibitory effect
CCCCCCCC/C=C\CCCCCCCCCCCC(=O)SCCNC(=O)CCNC(=O)[C@H](O)C(C)(C)COP(=O)(O)OP(=O)(O)OC[C@H]1O[C@@H](n2cnc3c(N)ncnc32)[C@H](O)[C@@H]1OP(=O)(O)O [22:1],"Wax synthase Activity, Acyl Group",jojoba wax synthase,39 pmol/min
same,"Wax synthase Activity, Alcohol Group",jojoba wax synthase,41 pmol/min
same,"Reductase Activity, Acyl-CoA (10 μM)",[1],1.0 pmol/min/µL
[Cl-].[Li+] [LiC1],effect of salt on reductase activity (in words),[1],stimulate reductase activity
NC(=O)C1=CN([C@@H]2O[C@H](COP(=O)(O)OP(=O)(O)OC[C@H]3O[C@@H](n4cnc5c(N)ncnc54)[C@H](O)[C@@H]3O)[C@@H](O)[C@H]2O)C=CC1 [NADH],effect of end-products and cofactors on reductase activity (in words),[1],marginal effects
CCCCCCCCCCCCCCCC(=O)SCCNC(C)=O [N-acetyl-S-palmitoyl cysteamine],wax synthase activity towards acyl-thioester substrates (in words),jojoba wax synthase; [5],no activity was detectable
CCCCC/C=C\C/C=C\CCCCCCCC(=O)SCCNC(=O)CCNC(=O)[C@H](O)C(C)(C)COP(=O)(O)OP(=O)(O)OC[C@H]1O[C@@H](n2cnc3c(N)ncnc32)[C@H](O)[C@@H]1OP(=O)(O)O [18:2],"Wax synthase Activity, Acyl Group",jojoba wax synthase,7 pmol/min
same,"Wax synthase Activity, Alcohol Group",jojoba wax synthase,123 pmol/min
"O[C@H](CS)[C@H](O)CS (racemic) [DTT, Dithiothreitol]",effect of effector on reductase activity (in words),[1],stimulatory
"O=C(O)CN(CCN(CC(=O)O)CC(=O)O)CC(=O)O [EDTA, ethylenediaminetetraacetic acid]",effect of effector on reductase activity (in words),[1],some stimulation
CCCCCCCCCCCCCCCCCC(=O)SCCNC(=O)CCNC(=O)[C@H](O)C(C)(C)COP(=O)(O)OP(=O)(O)OC[C@H]1O[C@@H](n2cnc3c(N)ncnc32)[C@H](O)[C@@H]1OP(=O)(O)O [18:0],"Wax synthase Activity, Acyl Group",jojoba wax synthase,51 pmol/min
same,"Wax synthase Activity, Alcohol Group",jojoba wax synthase,56 pmol/min
same,"Reductase Activity, Acyl-CoA (10 μM)",[1],1.4 pmol/min/µL
[Cl-].[Na+] [NaCl],stimulation of reductase activity,"[1]; addition of 0.5M salt, 500000 µM",Up to 15 fold
"C[C@H](CCC(=O)NCCC[N+](C)(C)CCCS(=O)(=O)[O-])[C@H]1CC[C@H]2[C@@H]3[C@H](O)C[C@@H]4C[C@H](O)CC[C@]4(C)[C@H]3C[C@H](O)[C@]12C [CHAPS, 3-[(3-cholamidopropyl)-dimethyl-ammonio]-1-propanesulfonate]",effect on the acyl transferase reaction (in words),[2],completely inhibits
same,effect on the reductase enzyme (in words),[1]; 0.3% w/v in the assay mixture,minimal effect
[Ca+2].[Cl-].[Cl-] [CaCl2],effect of salt on reductase activity (in words),[1],stimulate reductase activity
N#CS [KSCN],effect of salt on reductase activity (in words),[1],no stimulation or marginal stimulation
CCCCCCCCCCCCCC(=O)SCCNC(=O)CCNC(=O)[C@H](O)C(C)(C)COP(=O)(O)OP(=O)(O)OC[C@H]1O[C@@H](n2cnc3c(N)ncnc32)[C@H](O)[C@@H]1OP(=O)(O)O [14:0],"Wax synthase Activity, Acyl Group",jojoba wax synthase,95 pmol/min
same,"Wax synthase Activity, Alcohol Group",jojoba wax synthase,145 pmol/min
palmitoyl-ACP [16:0],wax synthase activity relative to acyl-CoA,jojoba wax synthase; [5],~ 10 % of that with acyl-CoA
same,activity as substrate of the reductase (in words),"[1]; substrate specificity experiment, 10 uM substrate",high
CC[C@H](C)C(=O)O[C@H]1C[C@@H](C)C=C2C=C[C@H](C)[C@H](CC[C@@H]3C[C@@H](O)CC(=O)O3)[C@H]21 [Mevinolin],concentration at which an effect on jojoba acyl-CoA reductase is seen,[1]; only has an effect at relatively high concentrations,100 µM
bovine serum albumin [BSA],effect on reductase activity (in words),[1]; concentrations at and above 0.2 mg/ml,inhibition of activity
same,effect on reductase activity (in words),"[1]; low concentrations, 0.02-0.075 mg/ml",small stimulation
CC(C)(COP(=O)(O)OP(=O)(O)OC[C@H]1O[C@@H](n2cnc3c(N)ncnc32)[C@H](O)[C@@H]1OP(=O)(O)O)[C@@H](O)C(=O)NCCC(=O)NCCS [CoA],effect of end-products and cofactors on reductase activity (in words),[1],significant inhibition
[Cl-].[K+] [KC1],effect of salt on reductase activity (in words),[1],stimulate reductase activity
O=S(=O)([O-])[O-].[Na+].[Na+] [Na2 SO4],effect of salt on reductase activity (in words),[1],stimulate reductase activity
O=C(O)c1cc[c]([Hg][OH])cc1 [para-hydroxymercuribenzoate],inhibitory effect on jojoba acyl-CoA reductase activity (in words),[1],some inhibitory effect
"CCCCCCCCCCCCCCCC(=O)SCCNC(=O)CCNC(=O)[C@H](O)C(C)(C)COP(=O)(O)OP(=O)(O)OC[C@H]1O[C@@H](n2cnc3c(N)ncnc32)[C@H](O)[C@@H]1OP(=O)(O)O [16:0, palmitoyl-CoA]",IC50,[3],5 µM
stearoyl-ACP,activity as substrate of the reductase (in words),[4],shown to have activity as a substrate
